Tested on: Colo205 Colon Cancer Xenograft
Experiment: Colo205 colon cancer xenograft model, tumor volume
Type: in vivo, SCID mice
Method: Cells were resuspended in a solution of 50%/v PBS and 50%/v Matrigel at a concentration of 25 million cells/ml. Resuspended cells were kept on ice until implantation. […] On day 0, 2.5 million cells/100 μl were implanted over the right flank of the each mouse using a 27G1/2 needle. One day after tumor implantation, the mice were randomized according to the body weight.
Leucovorin (LV) was also purchased from Sigma-Aldrich (Cat. No. F8259) and was formulated in 0.9% Sodium Chloride Injection USP at 2 mg/ml (for 10 mg/kg dosing), to 4 mg/ml (for 20 mg/kg dosing), and to 6 mg/ml (for 30 mg/kg dosing).
In the first experiment, FGFR1-ECD.339-Fc was combined with three different concentrations of 5-FU/leucovorin. In the second experiment, FGFR1-ECD.339-Fc was combined with either bevacizumab or 5-FU/leucovorin, or both. The double line separates the groups from the two experiments.
When the average tumor volume in a group was near 600 mm^3, the mice in that group were euthanized by isoflurane inhalation and cervical dislocation.
The order of effectiveness of the various treatments was evaluated two ways: 1) the average tumor volume in each group on a single time point (day); and 2) time for the average tumor volume in each group to reach 500 mm^3 (see the dotted line in FIG. 11E).
Leucovorin was also purchased from Sigma-Aldrich (Cat. No. F8259) and was formulated in 0.9% Sodium Chloride Injection USP at 2 mg/ml (for 10 mg/kg dosing).
5-FU and leucovorin were each administered i.p. at 10 mg/kg daily for five days. Oxaliplatin was administered i.p. at 5 mg/kg, 10 mg/kg, or 15 mg/kg in one dose on day 1.
Mice were euthanized on day 28 by isoflurane inhalation and cervical dislocation.

[1] = day 24, FGFR1-ECD.339-Fc 15 mg/kg i.p. 3x/wk x 4 wks, bevacizumab 1 mg/kg i.p. 2x/wk x 4 wks, 5-Fu/LV 10 mg/kg each i.p. q.d. x 5 days

## FGFR1-ECD.339-Fc: human FGFR1 extracellular domain ending at amino acid 339 fused to an Fc; SEQ ID NO: 6 (mature form)
Day 16, FGFR1-ECD.339-Fc 15 mg/kg i.p. 3x/wk x 4 wks, 5-FU/LV 10 mg/kg each i.p. q.d. x 5 days
  Fractional tumor volume (FTV), each treatment alone: 0.76
Day 16, FGFR1-ECD.339-Fc 15 mg/kg i.p. 3x/wk x 4 wks, 5-FU/LV 20 mg/kg each i.p. q.d. x 5 days
  Fractional tumor volume (FTV), each treatment alone: 0.76
Day 16, FGFR1-ECD.339-Fc 15 mg/kg i.p. 3x/wk x 4 wks, 5-FU/LV 30 mg/kg each i.p. q.d. x 5 days
  Fractional tumor volume (FTV), each treatment alone: 0.76
Day 24, FGFR1-ECD.339-Fc 15 mg/kg i.p. 3x/wk x 4 wks, bevacizumab 1 mg/kg i.p. 2x/wk x 4 wks, 5-Fu/LV 10 mg/kg each q.d. x 5 days
  Fractional tumor volume (FTV), each treatment alone: 0.73
By average tumor volume on a single day and by time for average tumor volume to reach 500 mm^3 (FIG. 11E), value gives the next-ranked group
  Order of antitumor effect of the treatment groups: >vehicle
Day 17, FGFR1-ECD.339-Fc 15 mg/kg i.p. 2x/wk x 4 wks, 5-FU and leucovorin 10 mg/kg each i.p. daily x 5 days, oxaliplatin 5 mg/kg i.p. one dose day 1
  Fractional tumor volume (FTV), each treatment alone: 0.77
Day 17, FGFR1-ECD.339-Fc 15 mg/kg i.p. 2x/wk x 4 wks, 5-FU and leucovorin 10 mg/kg each i.p. daily x 5 days, oxaliplatin 10 mg/kg i.p. one dose day 1
  Fractional tumor volume (FTV), each treatment alone: 0.77
[1]
  Mean Tumor volume mm^3(±SD): 509 (±144) mm^3
  Tumor growth inhibition (%): 26%

Source: patent US8951972B2, “FGFR1 extracellular domain combination therapies for lung cancer” (Five Prime Therapeutics, Inc., priority 2010, dated 2015)
